This note sets out measurements from ChEMBL document CHEMBL4619774 (J Med Chem, 2020).

One data set has as its target Plasminogen (Homo sapiens, UniProt P00747). The data set is classed as single protein.
Data set [1] is described as follows: Dose normalized AUC in C57BL/6 mouse at 3 mg/kg, po by LC-MS/MS analysis. The data set is classed as ADME, organism-based. Particulars: in vivo.
In a further data set the target is Complement factor D (Homo sapiens, UniProt P00746). It is filed as single protein.
Sequence of Complement factor D (P00746 whole entry, the tested form may be a part): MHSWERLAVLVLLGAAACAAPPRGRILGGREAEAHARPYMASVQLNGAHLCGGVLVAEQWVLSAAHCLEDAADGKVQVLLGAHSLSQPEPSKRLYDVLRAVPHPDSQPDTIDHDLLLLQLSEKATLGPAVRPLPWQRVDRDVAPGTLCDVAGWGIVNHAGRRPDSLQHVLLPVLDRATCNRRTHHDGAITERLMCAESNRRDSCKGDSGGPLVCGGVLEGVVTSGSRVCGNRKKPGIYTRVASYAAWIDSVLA
Data set [2] addresses T1, Coagulation factor XI (Homo sapiens, UniProt P03951). The experiment in a line: Inhibition of […] human plasma F11a catalytic domain expressed in Escherichia coli strain BL21(DE3) using D-Leu-Pro-Arg*Rh110-D-Pro as substrate preincubated for 60 mins followed by substrate addition and measured after 60 mins by fluorescence assay.
Data set [3] concerns the target T1, Coagulation factor XI. Kind of data set: Inhibition of human F11a using D-Leu-Pro-Arg*Rh110-D-Pro as substrate preincubated for 60 mins followed by substrate addition and measured after 60 mins by fluorescence assay.
The target in another data set is Plasma kallikrein (Homo sapiens, UniProt P03952). The data set is classed as single protein.
Sequence of Plasma kallikrein (P03952 20-390 limits assumed): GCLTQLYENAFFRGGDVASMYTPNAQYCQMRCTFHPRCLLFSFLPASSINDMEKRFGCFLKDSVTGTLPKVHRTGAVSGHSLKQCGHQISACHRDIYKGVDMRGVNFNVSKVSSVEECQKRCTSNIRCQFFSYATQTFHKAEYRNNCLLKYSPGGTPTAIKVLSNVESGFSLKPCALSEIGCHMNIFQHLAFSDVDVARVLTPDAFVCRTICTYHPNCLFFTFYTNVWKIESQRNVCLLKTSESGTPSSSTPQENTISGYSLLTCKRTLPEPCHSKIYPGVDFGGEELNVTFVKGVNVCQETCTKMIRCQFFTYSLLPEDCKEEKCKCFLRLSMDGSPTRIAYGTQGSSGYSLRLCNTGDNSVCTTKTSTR
Sequence of Plasma kallikrein (P03952 391-638 limits assumed): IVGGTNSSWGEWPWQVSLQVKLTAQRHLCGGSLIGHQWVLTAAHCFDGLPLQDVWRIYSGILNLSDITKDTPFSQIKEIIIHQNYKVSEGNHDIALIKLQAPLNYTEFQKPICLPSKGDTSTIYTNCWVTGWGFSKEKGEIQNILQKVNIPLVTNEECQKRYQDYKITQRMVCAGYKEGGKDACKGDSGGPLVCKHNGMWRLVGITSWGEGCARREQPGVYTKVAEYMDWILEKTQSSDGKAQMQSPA
In data set [4] the target is Tissue-type plasminogen activator (Homo sapiens, UniProt P00750). It is filed as single protein.
Sequence of Tissue-type plasminogen activator (P00750 whole entry): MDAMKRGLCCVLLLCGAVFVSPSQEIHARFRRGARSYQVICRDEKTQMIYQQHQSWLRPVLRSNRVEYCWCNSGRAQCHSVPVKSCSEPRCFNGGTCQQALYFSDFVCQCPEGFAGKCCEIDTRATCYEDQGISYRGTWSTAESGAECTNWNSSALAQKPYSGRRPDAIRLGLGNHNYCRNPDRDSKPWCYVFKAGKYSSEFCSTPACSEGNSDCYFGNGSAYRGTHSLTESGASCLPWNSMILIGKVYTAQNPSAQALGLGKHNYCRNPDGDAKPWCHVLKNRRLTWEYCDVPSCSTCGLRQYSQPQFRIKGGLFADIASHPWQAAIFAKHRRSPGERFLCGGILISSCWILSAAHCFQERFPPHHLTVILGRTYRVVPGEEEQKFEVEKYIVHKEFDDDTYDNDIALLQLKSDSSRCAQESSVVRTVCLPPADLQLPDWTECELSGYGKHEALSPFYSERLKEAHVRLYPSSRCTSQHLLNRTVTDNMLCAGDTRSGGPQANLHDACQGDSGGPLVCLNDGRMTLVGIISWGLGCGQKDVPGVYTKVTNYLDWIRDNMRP
A short description of data set [5]: Volume of distribution at steady state in C57BL/6 mouse at 0.4 mg/kg, iv bolus injection or 3 mg/kg, po by LC-MS/MS analysis. It is filed as ADME, organism-based. Particulars: in vivo, read-out: Vdss.
Another data set has as its target T2, Coagulation factor VII (Homo sapiens, UniProt P08709).
T2 sequence (P08709 whole entry): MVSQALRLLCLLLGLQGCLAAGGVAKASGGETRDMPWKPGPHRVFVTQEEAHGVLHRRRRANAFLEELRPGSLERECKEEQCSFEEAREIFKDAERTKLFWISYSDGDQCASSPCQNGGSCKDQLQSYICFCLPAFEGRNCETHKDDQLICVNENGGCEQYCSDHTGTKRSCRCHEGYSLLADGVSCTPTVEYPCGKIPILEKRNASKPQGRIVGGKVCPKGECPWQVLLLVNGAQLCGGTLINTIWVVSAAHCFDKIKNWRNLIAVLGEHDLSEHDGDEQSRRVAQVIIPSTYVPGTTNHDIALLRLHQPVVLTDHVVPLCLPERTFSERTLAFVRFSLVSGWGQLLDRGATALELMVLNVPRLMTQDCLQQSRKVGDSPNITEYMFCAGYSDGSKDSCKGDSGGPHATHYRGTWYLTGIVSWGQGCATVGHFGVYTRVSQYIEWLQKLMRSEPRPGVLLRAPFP
It is filed as single protein.

Data set [6] can be described thus: Oral bioavailability in C57BL/6 mouse at 3 mg/kg by LC-MS/MS analysis. The data set is classed as ADME, organism-based. The conditions noted are these: in vivo.
Data set [7] in a line: Dose normalized AUC in C57BL/6 mouse at 0.4 mg/kg, iv bolus injection by LC-MS/MS analysis. The data set is classed as ADME, organism-based. Particulars: in vivo.
Data set [8] is described as follows: Dose normalized Cmax in C57BL/6 mouse at 0.4 mg/kg, iv bolus injection or 3 mg/kg, po by LC-MS/MS analysis. It is filed as ADME, organism-based. Particulars: in vivo.
The nature of data set [9]: Terminal half life in C57BL/6 mouse at 0.4 mg/kg, iv bolus injection or 3 mg/kg, po by LC-MS/MS analysis. The data set is classed as ADME, organism-based. Particulars: in vivo, read-out: beta t1/2 (converted).
Data set [10] in a line: Tmax in C57BL/6 mouse at 0.4 mg/kg, iv bolus injection or 3 mg/kg, po by LC-MS/MS analysis. The data set is classed as ADME, organism-based. The conditions noted are these: in vivo.
The next data set deals with Coagulation factor X (Homo sapiens, UniProt P00742). The data set is classed as single protein.
Sequence of Coagulation factor X (P00742 41-179 limits assumed): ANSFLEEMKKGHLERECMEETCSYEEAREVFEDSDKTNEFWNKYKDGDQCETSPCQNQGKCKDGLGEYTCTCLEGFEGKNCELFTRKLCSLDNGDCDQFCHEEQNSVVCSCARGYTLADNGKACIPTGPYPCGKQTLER
Sequence of Coagulation factor X (P00742 235-488 limits assumed): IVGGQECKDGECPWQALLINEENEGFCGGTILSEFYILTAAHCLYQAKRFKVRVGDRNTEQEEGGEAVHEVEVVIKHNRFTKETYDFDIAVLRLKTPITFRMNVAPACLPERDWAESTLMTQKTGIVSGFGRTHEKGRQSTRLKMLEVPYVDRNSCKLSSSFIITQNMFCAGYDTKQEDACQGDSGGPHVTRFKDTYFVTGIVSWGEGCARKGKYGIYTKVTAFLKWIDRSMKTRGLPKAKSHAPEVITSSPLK
Data set [11] addresses Urokinase-type plasminogen activator (Homo sapiens, UniProt P00749). The data set is classed as single protein.
In the next data set the target is Coagulation factor IX (Homo sapiens, UniProt P00740). The data set is classed as single protein.
Sequence of Coagulation factor IX (P00740 47-191 limits assumed): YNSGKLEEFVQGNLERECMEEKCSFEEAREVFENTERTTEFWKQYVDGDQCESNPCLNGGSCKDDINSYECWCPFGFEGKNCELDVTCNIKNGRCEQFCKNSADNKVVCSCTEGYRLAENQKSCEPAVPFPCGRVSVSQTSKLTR
Sequence of Coagulation factor IX (P00740 227-461 limits assumed): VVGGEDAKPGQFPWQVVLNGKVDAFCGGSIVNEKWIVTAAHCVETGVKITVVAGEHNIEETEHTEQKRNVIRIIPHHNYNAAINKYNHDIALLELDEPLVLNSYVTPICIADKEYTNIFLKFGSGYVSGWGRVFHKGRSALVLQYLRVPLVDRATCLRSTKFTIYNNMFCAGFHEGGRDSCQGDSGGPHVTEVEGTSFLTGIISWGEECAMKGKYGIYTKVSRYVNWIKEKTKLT
Data set [12] is described as follows: Clearance in C57BL/6 mouse at 0.4 mg/kg, iv bolus injection or 3 mg/kg, po by LC-MS/MS analysis. It is filed as ADME, organism-based. Particulars: in vivo.
For the next data set, the species on record is Homo sapiens. The experiment in a line: Selectivity ratio of IC50 for inhibition of human complement FD to IC50 for inhibition of human F11a.
For a further data set, the target named is Prothrombin (Homo sapiens, UniProt P00734). It is filed as single protein.

T1 sequence (P03951 19-387 limits assumed): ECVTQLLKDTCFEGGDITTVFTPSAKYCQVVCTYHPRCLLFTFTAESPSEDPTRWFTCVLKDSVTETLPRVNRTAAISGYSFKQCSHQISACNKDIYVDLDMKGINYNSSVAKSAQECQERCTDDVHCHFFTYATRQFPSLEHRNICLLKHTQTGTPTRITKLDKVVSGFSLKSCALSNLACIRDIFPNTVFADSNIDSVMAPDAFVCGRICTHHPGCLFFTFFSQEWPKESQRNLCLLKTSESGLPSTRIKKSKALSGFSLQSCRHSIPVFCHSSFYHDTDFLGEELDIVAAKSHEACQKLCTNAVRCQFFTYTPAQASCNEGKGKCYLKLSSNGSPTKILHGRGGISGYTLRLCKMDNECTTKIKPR
T1 sequence (P03951 388-625 limits assumed): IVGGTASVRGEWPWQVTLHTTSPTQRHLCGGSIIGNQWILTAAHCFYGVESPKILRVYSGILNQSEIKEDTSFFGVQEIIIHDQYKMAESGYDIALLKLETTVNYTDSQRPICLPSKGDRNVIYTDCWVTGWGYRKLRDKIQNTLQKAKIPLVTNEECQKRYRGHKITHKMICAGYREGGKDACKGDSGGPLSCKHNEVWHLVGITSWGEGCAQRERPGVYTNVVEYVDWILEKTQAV
Sequence of Plasminogen (P00747 97-580 limits assumed): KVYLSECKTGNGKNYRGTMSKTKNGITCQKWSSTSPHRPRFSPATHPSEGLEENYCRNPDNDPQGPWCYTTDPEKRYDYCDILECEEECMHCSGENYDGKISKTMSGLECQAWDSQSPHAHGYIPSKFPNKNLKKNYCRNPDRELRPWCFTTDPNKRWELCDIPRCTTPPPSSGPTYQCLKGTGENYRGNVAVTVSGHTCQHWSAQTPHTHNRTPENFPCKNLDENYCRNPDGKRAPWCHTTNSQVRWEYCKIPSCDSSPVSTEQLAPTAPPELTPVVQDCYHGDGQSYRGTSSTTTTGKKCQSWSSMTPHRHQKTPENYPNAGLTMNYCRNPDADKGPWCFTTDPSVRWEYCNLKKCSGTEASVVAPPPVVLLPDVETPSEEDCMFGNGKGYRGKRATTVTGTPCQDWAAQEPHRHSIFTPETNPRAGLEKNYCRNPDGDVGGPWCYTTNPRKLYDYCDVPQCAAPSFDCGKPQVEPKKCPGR
Sequence of Plasminogen (P00747 581-810 limits assumed): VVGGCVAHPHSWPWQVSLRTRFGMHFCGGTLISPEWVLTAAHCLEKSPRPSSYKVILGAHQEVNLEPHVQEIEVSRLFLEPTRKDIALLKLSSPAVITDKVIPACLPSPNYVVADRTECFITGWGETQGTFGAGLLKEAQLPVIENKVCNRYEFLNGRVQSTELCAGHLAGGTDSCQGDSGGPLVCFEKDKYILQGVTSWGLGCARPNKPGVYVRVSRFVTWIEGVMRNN

The IC50 is the concentration that gives 50% inhibition. Broadly, the bioavailability is dose-corrected exposure relative to a reference, in per cent. The term Tmax denotes the time at which the peak concentration occurs. Consider `CC(C)c1cc(CCN2CCc3cccc(C(=O)O)c32)cc(-c2ccc3c(c2)[C@H](N)CO3)c1`, for which the 50% inhibitory concentration (IC50) at Plasminogen was 2.56 µM; against Complement factor D it was 4.41 µM; at Coagulation factor XI [2], 0.22 µM; against Coagulation factor XI [3], 0.006 µM; against Plasma kallikrein, 0.058 µM; in data set [4], 0.66 µM. The IC50 was found to be 6.23 µM at Coagulation factor VII; 1.83 µM against Coagulation factor X; 0.52 µM in [11]; 3.3 µM against Coagulation factor IX; 3.08 µM on Prothrombin. In addition, the AUC/dose in data set [1] amounted to 14041 nM·h; in [7], 38652 nM·h. Moreover, the Vd in data set [5] came to 0.4 L/kg. This compound also showed a bioavailability in data set [6] of 36%. In data set [8], this compound registered a Cmax/dose of 1495 nM. Further, the half-life in data set [9] was 9.2 h. In [10], the Tmax stood at 0.7 h. Moreover, the clearance in data set [12] worked out at 1 mL/min/kg. For the same compound, in the data set filed under Homo sapiens, the Ratio IC50 amounted to 700.
